In assay [1] the test system is human prostate cancer cell line PC-3. As to the kind of experiment: Antitumor test, human prostate cancer PC-3 solid tumor in nude mice (Example 1). In kind it is in vivo, mouse. The note with it: PC-3, i.v. q4d×3, 3.2 and 1.8 mg/kg, FIG. 1. Here is the method:
(§1) A necessary amount of FR901228 was weighed and a solvent (10% HCO-60/saline) was added. The mixture was sonicated to allow for dissolution. A positive control substance Paclitaxel was dissolved in Cremophor EL/ethanol (1:1) solution to 24 mg/mL prior to the testing, and preserved in a refrigerator. When in use, it was diluted with a 9-fold amount of physiological saline to 2.4 mg/mL (solvent component: 5% Cremophor EL-5% ethanol-90% saline).
For antitumor test of the pharmaceutical agent, BALB/cANnNCrj-nu/nu mice (male, 6-week-old) were purchased from Charles River Japan and, after acclimation for not less than one week, used for the test. The mice were reared under an SPF environment and allowed a free access to water and feed. […]
(§2) The administration was started on the day of grouping (Day 0). […] The amount of liquid for each administration was calculated (0.1 mL/10 g body weight) based on the body weight measured on the administration day. […]
(§3) The tumor size (longer diameter, shorter diameter) and body weight were measured twice a week from Day 0.
The level of tumor growth was evaluated based on the tumor growth rate (Relative Tumor Volume). […] The antitumor effect was determined on the 14th day (Day 14) from the start of the administration of the pharmaceutical agent. […]

Assay [2] concerns human lymphoma cell line U937. As to the kind of experiment: Survival test, human lymphoma U937 implanted intraperitoneally in SCID mice (Example 2). In kind it is in vivo, mouse. The note with it: U937, i.p. once or twice a week, 0.1-1.0 mg/kg, FIG. 2. Here is the method:
A necessary amount of FR901228 was weighed and a solvent (10% HCO-60/saline) was added. The mixture was sonicated to allow for dissolution.
For antitumor test of the pharmaceutical agent, Fox Chase C. B-17/Icr-SCID.Jcl mice (male, 6-week-old) were purchased from CLEA JAPAN INC. and, after acclimation for not less than one week, used for the test. The mice were reared under an SPF environment and allowed a free access to water and feed.
Cultured human lymphoma cell line (U937: obtained from Dr. Minowada, Hayashibara Biochemical Laboratories, Inc.) was cultured in RPMI (containing 10% FCS) and subcultured in vitro.
Cyclo phosphamide (Shionogi & Co., Ltd., 150 mg/kg) was intraperitoneally administered to mice. Lymphoma (1×10^7 cells) subcultured in vitro was intraperitoneally implanted the next day. After the tumor implantation, the mice were grouped into 6 (control group 12) mice per group to level the body weight.
The administration was started on the day of grouping (Day 0). FR901228 was intraperitoneally administered to an FR901228 administration group once or twice a week (0.1-1.0 mg/kg). Only a solvent (10% HCO-60/saline) was administered to a control group.
As an antitumor effect, the survival days of the mice were counted.

For assay [3], the system named is human prostate cancer cell line PC-3. As to the kind of experiment: Antitumor test, human prostate cancer PC-3 solid tumor in nude mice (Example 3). In kind it is in vivo, mouse. The note with it: dose of 3.2 mg/kg i.v. q4d×3, FIG. 3(a). The method, then: as §1
(§4) For antitumor test of the pharmaceutical agent, BALB/cANnNCrj-nu/nu mice (male, […]) were purchased from Charles River Japan and, after acclimation for not less than one week, used for the test. The mice were reared under an SPF environment and allowed a free access to water and feed. […]
as §2, §3
(§5) The level of tumor growth was evaluated based on the tumor growth rate (Relative Tumor Volume). […] The antitumor effect was determined on the 14th day (Day 14) from the start of the administration of a pharmaceutical agent. […]

The subject of assay [4] is human kidney cancer cell line ACHN. As to the kind of experiment: Antitumor test, human kidney cancer ACHN solid tumor in nude mice (Example 3). The format is in vivo, mouse. As to conditions: i.v. q4d×3, FIG. 3(b). Here is the method: as §1, §4, §2, §3, §5
Assay [5] has as its system p21 gene expression in PC-3 cells. As to the kind of experiment: p21 gene expression in vitro by real time PCR, PC-3 (Example 4). In kind it is cell-based, human. The note with it: PC-3, FR901228 5 ng/mL, FIG. 4(a). Here is the method:
(§6) A necessary amount of FR901228 was weighed and dissolved in a solvent (99.5% ethanol) to the concentration of 1 mg/mL. Then, the solution was diluted with culture medium.
(§7) Cultured human cancer cell (PC-3 and ACHN) were cultured in DMEM (containing 10% FCS).
(§8) The cells were inoculated at 2×10^6 cells per a culture dish, and cultured in the presence of FR901228 (5 ng/mL) for a given time. After culturing, RNA was extracted with a TRIZOL reagent (GIBCO BRL) according to the operation manual.
(§9) RNA was subjected to reverse transcription using a Taq-man reverse transcription reagent (PE Biosystem) according to the operation manual. Thereafter, p21 gene was amplified using a SYBR green PCR master mix (PE Biosystem) and primer 5′-GGCAGACCAGCATGACACATT-3′ (p21 upstream)(SEQ ID; No 1), 5′-GGATTAGGGCTTCCTCTTGGAG-3′ (SEQ ID; No 2) according to the operation manual, and detected with ABI 7700 PRISM sequence detector (PE Biosystem). The expression amount of p21 gene was calculated from a standard curve, divided by the expression amount of β-actin gene, which was used as an internal standard, and expressed in a standardized relative expression amount.

Assay [6] has as its system p21 gene expression in ACHN cells. As to the kind of experiment: p21 gene expression in vitro by real time PCR, ACHN (Example 4). In kind it is cell-based, human. As to conditions: FR901228 5 ng/mL, FIG. 4(b). Here is the method:
as §6, §7, §8, §9

Assay [7] concerns p21 gene and c-myc gene expression in PC-3 tumor. As to the kind of experiment: p21 and c-myc gene expression in vivo in PC-3 tumor of nude mouse (Example 5). As to conditions: 3.2 mg/kg i.v. Here is the method:
(§10) Human prostate cancer PC-3 or kidney cancer ACHN was subcutaneously implanted in a nude mouse, and when the size of the tumor reached 100-300 mg, FR901228 (3.2 mg/kg) was intravenously administered. The tumor was removed with the lapse of time, and after extracting RNA, the expression amount of p21 gene and c-myc gene was examined by real time PCR in the same manner as in Example 4. The c-myc gene was amplified using a SYBR green PCR master mix (PE Biosystem) and primer 5′-GACAGATCAGCAACAACCGAAA-3′ (human c-myc upstream)(SEQ ID; No 3), 5′-TTGTGTGTTCGCCTCTTGACAT-3′ (human c-myc downstream)(SEQ ID; No 4) according to the operation manual, and detected with ABI 7700 PRISM sequence detector (PE Biosystem).

The subject of assay [8] is p21 gene and c-myc gene expression in ACHN tumor. As to the kind of experiment: p21 and c-myc gene expression in vivo in ACHN tumor of nude mouse (Example 5). As to conditions: 3.2 mg/kg i.v. Here is the method: as §10
Assay [9] concerns human prostate cancer PC-3. As to the kind of experiment: In vivo growth suppression rate, PC-3 tumor-carrying mice. The note with it: PC-3, FR901228 3.2 mg/kg. The arrangement: species or system mouse. The method, then: (§11) The growth suppression rate of human prostate cancer PC-3, human gastric cancer SC-6, human kidney cancer ACHN and human kidney cancer A498 by the administration of FR901228 (3.2 mg/kg) was 98%, 84%, 20% and 29%, respectively. Therefore, PC-3 and SC-6 were determined to be FK228 sensitive tumors, and ACHN and A498 were determined to be FK228 resistant tumors.

Assay [10] relates to human gastric cancer SC-6. As to the kind of experiment: In vivo growth suppression rate, SC-6 tumor-carrying mice. On the set-up: species or system mouse. The note with it: SC-6, FR901228 3.2 mg/kg. The method, then:
as §11

In assay [11] the test system is human kidney cancer ACHN. As to the kind of experiment: In vivo growth suppression rate, ACHN tumor-carrying mice. The arrangement: species or system mouse. As to conditions: FR901228 3.2 mg/kg. Here is the method:
as §11

The test system of the next assay is human kidney cancer A498. As to the kind of experiment: In vivo growth suppression rate, A498 tumor-carrying mice. On the set-up: species or system mouse. As to conditions: A498, FR901228 3.2 mg/kg. The method, then: as §11
For the next assay, the system named is histone deacetylase. As to conditions: Nakajima, H. et al (1998); cited from earlier work.
Assay [12] has as its system human prostate cancer PC-3. As to the kind of experiment: In vitro growth suppression, PC-3. As to conditions: PC-3, contacted for 72 hr. The format is cell-based.
A further assay deals with human lymphoma U937. As to the kind of experiment: In vitro growth suppression, U937. The format is cell-based. As to conditions: U937, contacted for 72 hr.
The subject of assay [13] is human kidney cancer ACHN. As to the kind of experiment: In vitro growth suppression, ACHN. The format is cell-based. The note with it: contacted for 72 hr.

As for `C/C=C1\NC(=O)[C@H]2CSSCC/C=C/[C@H](CC(=O)N[C@H](C(C)C)C(=O)N2)OC(=O)[C@H](C(C)C)NC1=O` [FR901228], in [1], the “antitumor effect in vivo against human prostate cancer (tumor growth rate)” value was “showed an antitumor effect”. Further, in [2], the “antitumor effect in vivo against human lymphoma (survival of mice)” value is “showed an antitumor effect”. For the same compound, the “antitumor effect against PC-3 (tumor growth rate)” value in assay [3] is given as “potent antitumor effect”. For the same compound, in [4], the “antitumor effect against ACHN (tumor growth rate)” value is “did not show an antitumor effect”. The “p21 gene expression in vitro” value is recorded as “increased expression of the p21 gene with the lapse of time” in assay [5] and “did not show increased expression of p21 gene” in [6]. Besides, the results for the “c-myc gene expression in vivo” value in assay [7] and in assay [8] were “decreased expression” and “increased expression”, respectively. Also, the “time of peak of p21 gene expression after administration” value in assay [7] amounted to 3 h. Moreover, the entries for the “p21 gene expression in vivo” value in assay [7] (FIG. 5(a)) and in assay [8] (FIG. 5(a)) were “increased expression of p21 gene” and “did not show increased expression of p21 gene”, respectively. The growth suppression rate worked out at 98% in assay [9], 84% in assay [10], 20% in the assay with human kidney cancer ACHN [11] and 29% in the assay on human kidney cancer A498. Also, in the assay with histone deacetylase, the “histone deacetylase inhibitory activity” value is given as “stronger histone deacetylase inhibitory activity”.
Turning to FK228, the “growth suppression effect in IC50 value” in assay [12] amounted to 3.17 ng/mL; in the assay on human lymphoma U937, 3.20 ng/mL; with human kidney cancer ACHN [13], 4.25 ng/mL.

The record behind these values is patent US8470783B2, “Medicinal use of histone deacetylase inhibitor and method of evaluating antitumor effect thereof” (Astellas Pharma Inc., priority 2001, dated 2013).
